Assay results reported in ChEMBL document CHEMBL4483862, “Open-source discovery of chemical leads for next-generation chemoprotective antimalarials” (2018).
pIC50: −log10 of the molar value.

System: Plasmodium berghei
Assay: Luciferase/luciferin-expressing antifolate-resistant parasites were used to infect a culture of HepG2 cells that were pre-incubated with compounds. Infected hepatocytes emit light due to the luciferase reaction. Assay results are presented as the percent inhibition of light emission compared to control. […]
Format: functional
Details: sporozoite; for IC90: read-out: LUCIFERASE INFECTION ASSAY - IC90
[1] = read-out: LUCIFERASE INFECTION ASSAY - IC50

Row | Structure (SMILES) | pIC50 [1] | IC90 [µM] | further results
1 | O=C(CC1(O)C(=O)Nc2ccccc21)c1ccc(OCC(=O)N2CCOCC2)cc1 (centres undefined) | < 5.00 | > 10 | –
2 | CCN(C(=O)COc1ccc(-c2ccccc2)cc1)c1cccc2ccccc12 | < 5.00 | > 10 | –
3 | COc1ccc(Oc2ccc(/C=C/C(=O)c3ccc(N4CCN(C)CC4)cc3)cc2[N+](=O)[O-])cc1 | – | 4.34 | pIC50 (HEPG2TOX_HILL_SLOPE 14.7, HEPG2TOX_R_SQUARED 0.729, PBLUC_HILL_SLOPE 20.7, PBLUC_R_SQUARED 0.331, read-out: LUCIFERASE INFECTION ASSAY - IC50): 5.41
4 | CCOC(=O)/C(=C\c1ccc(Cl)c([N+](=O)[O-])c1)C1=Nn2c(nnc2-c2cccs2)SC1 | < 5.00 | > 10 | –
5 | COC(=O)c1sc2nccnc2c1N | < 4.80 | > 15.8 | –
6 | C[C@]12CCC3C(CC[C@]4(O)C[C@@H](O)CC[C@]34/C=N/O)[C@@]1(O)CC[C@@H]2C1=CC(=O)OC1 (some centres undefined) | – | 0.165 | pIC50 (HEPG2TOX_HILL_SLOPE 2.86, HEPG2TOX_R_SQUARED 0.935, PBLUC_HILL_SLOPE 2.2, PBLUC_R_SQUARED 0.866, read-out: LUCIFERASE INFECTION ASSAY - IC50): 7.22
7 | O=C(Cn1ncc(Cl)c(Cl)c1=O)Nc1cc(Cl)ccc1[N+](=O)[O-] | – | 3.5 | pIC50 (FFLUC_HILL_SLOPE 13.5, FFLUC_R_SQUARED 0.43, HEPG2TOX_HILL_SLOPE 9.94, HEPG2TOX_R_SQUARED 0.973, PBLUC_HILL_SLOPE 20.4, PBLUC_R_SQUARED 0.69, read-out: LUCIFERASE INFECTION ASSAY - IC50): 5.50
8 | Cc1cccc(N2CCN(C(=O)c3nn(-c4ccccc4)c(=O)c4ccccc34)CC2)c1C | < 5.00 | > 10 | –
9 | CNC(=S)N/N=C1\C(=O)Nc2ccc(C(C)C)cc21 | – | > 10 | pIC50 (FFLUC_HILL_SLOPE 0.391, FFLUC_R_SQUARED 0.18, PBLUC_HILL_SLOPE 8.53, PBLUC_R_SQUARED 0.15, read-out: LUCIFERASE INFECTION ASSAY - IC50): 5.06
10 | CN1C/C(=C\c2ccccc2Cl)C(=O)/C(=C/c2ccccc2Cl)C1 | – | 3.58 | pIC50 (HEPG2TOX_HILL_SLOPE 12.3, HEPG2TOX_R_SQUARED 0.936, PBLUC_HILL_SLOPE 378, PBLUC_R_SQUARED 0.452, read-out: LUCIFERASE INFECTION ASSAY - IC50): 5.45
11 | CC(C)n1ncc2cc(C(=O)Nc3nc(-c4ccccn4)cs3)cnc21 | 5.97 | 2.1 | –
12 | Cc1ccc(C(=O)CCC(=O)NCc2ccccc2)s1 | < 5.00 | > 10 | –
13 | O=C(/C=C/c1ccc(N2CCCCC2)c([N+](=O)[O-])c1)c1ccc(O)cc1 | 5.02 | > 10 | –
14 | CCCN(CC(=O)Nc1ccccc1C)C(=O)Cn1nnc2ccccc21 | < 5.00 | > 10 | –
15 | CN(C)Cc1ccc(CNC(=O)Cc2ccc(-c3ccccc3)cc2)cc1 | – | 7.76 | pIC50 (HEPG2TOX_HILL_SLOPE 3.86, HEPG2TOX_R_SQUARED 0.943, PBLUC_HILL_SLOPE 3.55, PBLUC_R_SQUARED 0.451, read-out: LUCIFERASE INFECTION ASSAY - IC50): 5.38
16 | Cc1ccc(Cn2nc(C)c(C(=O)Nc3nc4c(s3)CCCC4)c2Cl)cc1 | – | > 10 | pIC50 (PBLUC_HILL_SLOPE 15.7, PBLUC_R_SQUARED 0.159, read-out: LUCIFERASE INFECTION ASSAY - IC50): 5.04

Row | Structure (SMILES) | pIC50 [1] | IC90 [µM] | further results
17 | COc1ccc(-c2nc(NC(=O)c3ccc4nc[nH]c4c3)sc2C)cc1 | < 5.00 | > 10 | –
18 | CCCOc1ccccc1NC(=O)c1cnc2c(c1)c(=O)[nH]c(=O)n2C | < 5.00 | > 10 | –
19 | Cc1cc(C)cc(NC(=S)NCCCCN2CCN(c3cccc(Cl)c3)CC2)c1 | – | > 7.66 | pIC50 (PBLUC_HILL_SLOPE 3.55, PBLUC_R_SQUARED 0.0766, read-out: LUCIFERASE INFECTION ASSAY - IC50): 5.12
20 | CSc1sc(C(N)=S)c(C)c1C(C)=O | < 4.87 | > 13.4 | –
21 | OCc1ccc(-c2cnc3ccc(-c4cccc(C(F)(F)F)c4)nn23)cc1 | < 5.00 | > 10 | –
22 | CSc1[nH]c(=O)c(C(=O)NCCc2c(C)cc(C(C)(C)C)cc2C)cc1C#N | – | 7.29 | pIC50 (PBLUC_HILL_SLOPE 3.23, PBLUC_R_SQUARED 0.351, read-out: LUCIFERASE INFECTION ASSAY - IC50): 5.43
23 | Brc1ccc(/C=N/c2ccccc2N2CCOCC2)cc1 | < 5.00 | > 10 | –
24 | O=C(OCc1cc(=O)oc2cc(O)ccc12)c1c2c(nc3ccccc13)/C(=C/c1ccc([N+](=O)[O-])cc1)CCC2 | – | > 10 | pIC50 (FFLUC_HILL_SLOPE 2.06, FFLUC_R_SQUARED 0.63, PBLUC_HILL_SLOPE 4.67, PBLUC_R_SQUARED 0.673, read-out: LUCIFERASE INFECTION ASSAY - IC50): 5.11
25 | O=C(c1cnc(N2CCCC2)s1)c1sc2cc(Cl)cc(Cl)c2c1Cl | – | > 10 | pIC50 (FFLUC_HILL_SLOPE 11, FFLUC_R_SQUARED 0.0847, HEPG2TOX_HILL_SLOPE 2.22, HEPG2TOX_R_SQUARED 0.924, PBLUC_HILL_SLOPE 1.87, PBLUC_R_SQUARED 0.226, read-out: LUCIFERASE INFECTION ASSAY - IC50): 5.16
26 | Cc1ccc2nc(CN3CCCCC3c3nc4ccccc4s3)cn2c1 (centres undefined) | < 5.00 | > 10 | –
27 | CCCn1c(N)c(C(=O)CN(Cc2ccco2)Cc2cccs2)c(=O)[nH]c1=O | – | > 10 | pIC50 (PBLUC_HILL_SLOPE 2.23, PBLUC_R_SQUARED 0.528, read-out: LUCIFERASE INFECTION ASSAY - IC50): 5.26
28 | CN(C)CCNc1ccnc2c(-c3ccccc3Oc3ccccc3)cnn12 | – | > 8.84 | pIC50 (PBLUC_HILL_SLOPE 1.31, PBLUC_R_SQUARED 0.651, read-out: LUCIFERASE INFECTION ASSAY - IC50): 5.29
29 | CN(Cc1ccc(OCc2ccc(Cl)cc2)cc1)C(=O)c1cnn(C)c1 | < 5.00 | > 10 | –
30 | c1ccc(-c2nnc(-c3ccccn3)nc2-c2ccccc2)cc1 | – | 4.22 | pIC50 (HEPG2TOX_HILL_SLOPE 3.54, HEPG2TOX_R_SQUARED 0.979, PBLUC_HILL_SLOPE 15.1, PBLUC_R_SQUARED 0.651, read-out: LUCIFERASE INFECTION ASSAY - IC50): 5.44
31 | c1ccc(-c2cn3ccnc3c(NCc3ccncc3)n2)cc1 | – | 4.49 | pIC50 (HEPG2TOX_HILL_SLOPE 2.19, HEPG2TOX_R_SQUARED 0.99, PBLUC_HILL_SLOPE 12.4, PBLUC_R_SQUARED 0.482, read-out: LUCIFERASE INFECTION ASSAY - IC50): 5.42
32 | COc1cc(C(=O)NCCN(C(C)C)C(C)C)cc(OC)c1C | < 5.00 | > 10 | –
